Data on nine compounds can be found in PubChem BioAssay (NCI).

Test systems include RXF-631 renal; DMS 273 small cell lung; LXFL 529 NSCLC; M19-MEL melanoma; PC-3 prostate; NCI/ADR-RES ovarian; MDA-N; MDA-MB-435.
What all share (experiment): NCI anticancer screen, dose series, 48 h

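How tested: cells in 96-well plates exposed to compound for 48 hours at five concentrations. TGI marks complete inhibition of growth.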 A value given as a limit tells only on which side of the number the result lay.

For the compound `CC(C)=CC(C(O)c1ccccc1)S(=O)(=O)c1nccn1C` (stereo not given), the TGI in the test on RXF-631 renal, in the test with DMS 273 small cell lung, in the test on LXFL 529 NSCLC and in the test with M19-MEL melanoma was over 100 µM in each case.
On to `NC(=O)c1c[se]c(C2OC(CO)C(O)C2O)n1` (stereo not given), for which the TGI with RXF-631 renal, with PC-3 prostate, in the test with NCI/ADR-RES ovarian, with DMS 273 small cell lung, in the test with LXFL 529 NSCLC and in the test on MDA-N was over 100 µM each time. The TGI with MDA-MB-435 and in the test with M19-MEL melanoma was over 100 µM throughout.
For the compound `CC1=C2C(O)C(C(C)CO)C(O)CC2(C)C(O)CC1` (stereo not given), the TGI in the test on RXF-631 renal, in the test with DMS 273 small cell lung, with LXFL 529 NSCLC and in the test with M19-MEL melanoma was over 100 µM each time.
For the compound `CC(=O)O/N=C/c1ncccc1CO`, the TGI with RXF-631 renal, with DMS 273 small cell lung, in the test on LXFL 529 NSCLC and with M19-MEL melanoma was over 100 µM each time.
In the case of `CC(=O)N/C(=C\c1ccc(/C=C(\NC(C)=O)c2nc3ccc(Cl)cc3[nH]2)cc1)c1nc2ccccc2[nH]1`, the TGI with RXF-631 renal, in the test with DMS 273 small cell lung, with LXFL 529 NSCLC and in the test with M19-MEL melanoma was over 100 µM throughout.
As for `O=C1C(Br)=C[C@H]2C3C=CC(Br)(C3=O)[C@@H]12` (stereo not given in full), the TGI in the test on RXF-631 renal was found to be 50.1 µM; in the test with DMS 273 small cell lung, 27 µM; in the test on LXFL 529 NSCLC, 21.8 µM; with M19-MEL melanoma, 24.8 µM.
`Nc1ccc(C(=O)N/C(=C\C=C\c2ccco2)c2nc3[nH]c(=S)[nH]c(=O)c3[nH]2)cc1`: the TGI in the test on RXF-631 renal, in the test with DMS 273 small cell lung, in the test with LXFL 529 NSCLC and in the test on M19-MEL melanoma was over 100 µM in each case.
As to `Cc1nc(N)sc1C(=O)/C=C/c1ccc(/C=C/C(=O)c2sc(NC(=O)CCCCCCCCC(=O)Nc3nc(C)c(C(=O)/C=C/c4ccc(/C=C/C(=O)c5sc(N)nc5C)cc4)s3)nc2C)cc1`, the TGI with RXF-631 renal, with DMS 273 small cell lung, in the test with LXFL 529 NSCLC and with M19-MEL melanoma was over 100 µM in each case.
For `CCOC(=O)C(C)(C)Oc1ccc2c(=O)cc(-c3ccc(Cl)cc3)oc2c1`, the TGI in the test with RXF-631 renal, with DMS 273 small cell lung, in the test with LXFL 529 NSCLC and with M19-MEL melanoma was over 100 µM throughout.
